Assay results from US7902252B2, “Inhibitors of D-amino acid oxidase” (Sepracor, Inc., priority 2007, dated 2011).

Assays:
Human DAAO = Human DAAO (Homo sapiens, UniProt P14920); test: D-Amino Acid Oxidase enzyme assay (D-serine, horseradish peroxidase/Amplex Red coupled fluorescence); format: biochemical; settings: D-serine 5 mM, pH 7.4
In short: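 D-serine substrate at 5 mM (Km), 50 mM sodium phosphate pH 7.4; H2O2 output coupled via 4 U/mL horseradish peroxidase and 50 μM Amplex Red to resorufin fluorescence. Reaction started with enzyme; H2O2 control checked coupling interference; IC50 from inhibition curves.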

[1] = tested on: D-serine levels in the cerebellum; test: In vivo elevation of D-serine levels in the cerebellum; set-up: species or system Mice (C57BL/6); settings: mice, intraperitoneal;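 further: Cutoffs are cerebellum D-serine in nmol/g wet tissue weight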
Experimental: […] Animals are sacrificed at either 2 or 6 h post compound administration with an N=3 per time point. At sacrifice, trunk blood is collected into tubes containing potassium EDTA, which are then centrifuged to permit isolation of plasma. The cerebellum is dissected from each animal. Plasma and cerebellum samples are stored at −80° C. until samples are analyzed (LC/MS/MS).

Sequence of Human DAAO (P14920 whole entry): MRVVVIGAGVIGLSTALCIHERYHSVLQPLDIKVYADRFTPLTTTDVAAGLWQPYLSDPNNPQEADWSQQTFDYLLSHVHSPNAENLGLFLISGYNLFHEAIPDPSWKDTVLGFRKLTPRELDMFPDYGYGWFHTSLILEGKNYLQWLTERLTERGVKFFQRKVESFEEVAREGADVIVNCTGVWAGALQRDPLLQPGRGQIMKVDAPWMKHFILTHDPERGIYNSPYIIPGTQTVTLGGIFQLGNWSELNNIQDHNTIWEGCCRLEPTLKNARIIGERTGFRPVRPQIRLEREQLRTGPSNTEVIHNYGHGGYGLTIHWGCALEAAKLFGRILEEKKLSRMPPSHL

SMILES	IC50 (Human DAAO) [µM]	Cerebellum D-serine at 2 hours ([1]; dose 30 mg/kg)	Cerebellum D-serine at 6 hours ([1]; dose 30 mg/kg)	Cerebellum D-serine at 2 hours ([1]; dose 60 mg/kg)
O=C(O)c1cc2c([nH]1)CCC2Cc1ccc(Br)cc1 (single isomer, unassigned) [Compound 62, 4-(4-bromobenzyl)-1,4,5,6-tetrahydrocyclopenta[b]pyrrole-2-carboxylic acid]	≤ 0.1	(+) (2.5-4.9 = (+))	(++) (>5 = (++))	–
O=C(O)c1cc2c([nH]1)CCC2Cc1cccc(-c2ccc[nH]2)c1 (single isomer, unassigned) [Compound 93, 4-(3-(1H-pyrrol-2-yl)benzyl)-1,4,5,6-tetrahydrocyclopenta[b]pyrrole-2-carboxylic acid]	≤ 0.1	(+) (2.5-4.9 = (+))	(+) (2.5-4.9 = (+))	–
O=C(O)c1cc2c([nH]1)CCC2Cc1cccc(-c2ccco2)c1 (single isomer, unassigned) [Compound 89, 4-(3-(furan-2-yl)benzyl)-1,4,5,6-tetrahydrocyclopenta[b]pyrrole-2-carboxylic acid]	≤ 0.1	(−) (<2.5 = (−))	–	–
O=C(O)c1cc2c([nH]1)CCC2Cc1ccc2ccccc2c1 (single isomer, unassigned) [Compound 80, 4-(naphthalen-2-ylmethyl)-1,4,5,6-tetrahydrocyclopenta[b]pyrrole-2-carboxylic acid]	≤ 0.1	(+) (2.5-4.9 = (+))	(+) (2.5-4.9 = (+))	–

Now from value to compound, other results behind:

IC50 (Human DAAO) [µM]	SMILES	Cerebellum D-serine at 2 hours ([1]; dose 30 mg/kg)	Cerebellum D-serine at 6 hours ([1]; dose 30 mg/kg)	Cerebellum D-serine at 2 hours ([1]; dose 60 mg/kg)
≤ 0.1	O=C(O)c1cc2c([nH]1)CCC2Cc1ccc(F)cc1F (single isomer, unassigned) [Compound 47, 4-(2,4-difluorobenzyl)-1,4,5,6-tetrahydrocyclopenta[b]pyrrole-2-carboxylic acid]	(++) (>5 = (++))	(+) (2.5-4.9 = (+))	–
≤ 0.1	O=C(O)c1cc2c([nH]1)CCC2Cc1ccc(F)cc1 (racemic) [Compound 39, 4-(4-fluorobenzyl)-1,4,5,6-tetrahydrocyclopenta[b]pyrrole-2-carboxylic acid]	(+) (2.5-4.9 = (+))	(+) (2.5-4.9 = (+))	–
≤ 100	O=C(O)c1cc2c([nH]1)CCC2Cc1cccc(Br)c1 (single isomer, unassigned) [Compound 65, 4-(3-bromobenzyl)-1,4,5,6-tetrahydrocyclopenta[b]pyrrole-2-carboxylic acid]	(++) (>5 = (++))	(+) (2.5-4.9 = (+))	–
≤ 0.1	O=C(O)c1cc2c([nH]1)CC1CC21 (single isomer, unassigned) [Compound 140, 1a,4,5,5a-tetrahydro-1H-4-aza-cyclopropa[α]pentalene-3-carboxylic acid]	(++) (>5 = (++))	(++) (>5 = (++))	–
≤ 0.1	O=C(O)c1cc2c([nH]1)CCC2Cc1cccc(Br)c1 (single isomer, unassigned) [Compound 64, 4-(3-bromobenzyl)-1,4,5,6-tetrahydrocyclopenta[b]pyrrole-2-carboxylic acid]	–	–	(−) (<2.5 = (−))
